Results: the NIST ThermoML archive (doi:10.1021/je049612f)

Conditions: Gas, Vibrating wire viscometry

FS(F)(F)(F)(F)F [sulfur hexafluoride]
Conditions | viscosity [mPa·s]
375 K, 11030 kPa | 0.06052
375 K, 11466 kPa | 0.06322
375 K, 12235 kPa | 0.0678
375 K, 12730 kPa | 0.07044
375 K, 13213 kPa | 0.07319
375 K, 13867 kPa | 0.07655
375 K, 14447 kPa | 0.07948
375 K, 15713 kPa | 0.08527
375 K, 16802 kPa | 0.09
400 K, 100.75 kPa | 0.0197
400 K, 127.69 kPa | 0.01971
400 K, 153.61 kPa | 0.01972
400 K, 174.48 kPa | 0.01973
400 K, 200.5 kPa | 0.01973
400 K, 224.7 kPa | 0.01975
400 K, 249.97 kPa | 0.01975
400 K, 276.92 kPa | 0.01976
400 K, 316.57 kPa | 0.01977
400 K, 356.06 kPa | 0.01979
400 K, 387.16 kPa | 0.0198
400 K, 431.42 kPa | 0.01981
400 K, 458.7 kPa | 0.01982
400 K, 482.84 kPa | 0.01983
400 K, 520.38 kPa | 0.01984
400 K, 569.64 kPa | 0.01987
400 K, 636.33 kPa | 0.01989
400 K, 669.9 kPa | 0.0199
400 K, 702.5 kPa | 0.01991
400 K, 753.74 kPa | 0.01994
400 K, 791.41 kPa | 0.01995
400 K, 818.44 kPa | 0.01996
400 K, 853.97 kPa | 0.01998
400 K, 930.59 kPa | 0.02001
400 K, 972.98 kPa | 0.02003
400 K, 1025.6 kPa | 0.02006
400 K, 1088.2 kPa | 0.02009
400 K, 1153.3 kPa | 0.02012
400 K, 1240.9 kPa | 0.02017
400 K, 1319.7 kPa | 0.02022
400 K, 1397.4 kPa | 0.02025
400 K, 1462.5 kPa | 0.02029
400 K, 1615.7 kPa | 0.02039
400 K, 1688.5 kPa | 0.02043
400 K, 1768 kPa | 0.02049
400 K, 1876.4 kPa | 0.02057
400 K, 1956 kPa | 0.02063
400 K, 2349.8 kPa | 0.02093
400 K, 2474.2 kPa | 0.02104
400 K, 2539.4 kPa | 0.02109
400 K, 2835.4 kPa | 0.02138
400 K, 3021.7 kPa | 0.02156
400 K, 3266.3 kPa | 0.02184
400 K, 3463.7 kPa | 0.02205
400 K, 3614.2 kPa | 0.02225
400 K, 3864.1 kPa | 0.02256
400 K, 4152.9 kPa | 0.02298
400 K, 4564.1 kPa | 0.02363
400 K, 4898.5 kPa | 0.02421
400 K, 5193.2 kPa | 0.02477
400 K, 5460.7 kPa | 0.02531
400 K, 5742.7 kPa | 0.02594
400 K, 6016.6 kPa | 0.02658
400 K, 6359.6 kPa | 0.02746
400 K, 6659.9 kPa | 0.02831
400 K, 6950.7 kPa | 0.02917
400 K, 7241 kPa | 0.03009
400 K, 7553 kPa | 0.03115
400 K, 7833.9 kPa | 0.03216
400 K, 8142 kPa | 0.03332
400 K, 8490.6 kPa | 0.03475
400 K, 8799 kPa | 0.03604
400 K, 9139.9 kPa | 0.0375
400 K, 9483.5 kPa | 0.03903
400 K, 9833.2 kPa | 0.0407
400 K, 10191 kPa | 0.04234
400 K, 10589 kPa | 0.04429
400 K, 11000 kPa | 0.04619
400 K, 11434 kPa | 0.04827
400 K, 11902 kPa | 0.05055
400 K, 12397 kPa | 0.05295
400 K, 12979 kPa | 0.05567
400 K, 13719 kPa | 0.05901
400 K, 14342 kPa | 0.06179
400 K, 15061 kPa | 0.06486
400 K, 15882 kPa | 0.0684
